Where two headings read alike, the source gives them in different places.
How the values were obtained:
surgically stressed rats [1] = assay: Effect on body electrolyte: urinary electrolyte after continuous administration in glucose-electrolytes infusion solution (SOLITA-T No. 3)
Description: (§1) The solution was continuously administered to surgically stressed rats underwent intestinal tract scratch operation at a normal dose (240 mL/kg/day) for 3 days. On the final day of administration, urine was collected by 24-hour urine collection and measured for the urinary electrolyte concentration.

surgically stressed rats [2] = details: rat, in vivo
Description: as §1

[3] = HMB final concentration 0.42 weight/volume % in SOLITA-T No. 3, 240 mL/kg/day for 3 days, 24-hour urine of the final day

| SMILES | Urinary calcium excretion amount (surgically stressed rats [1]; [3]) [mg/day] | Urinary phosphate excretion amount (surgically stressed rats [1]; [3]) [mg/day] | Electrolyte abnormality (urinary calcium, urinary phosphate) in combined administration with SOLITA-T No. 3 infusion solution (surgically stressed rats [1]; in words) | Electrolyte abnormality (urinary calcium, urinary phosphate) in combined administration with SOLITA-T No. 3 infusion solution (surgically stressed rats [2]) |
| --- | --- | --- | --- | --- |
| CC(C)(O)CC(=O)O.N=C(N)NCCCC(N)C(=O)O (stereo not shown) [Arginine salt nonhydrate of HMB, arginine salt nonhydrate of HMB] | 0.24 | 19.1 | does not induce the above electrolyte abnormality |  |
| CC(C)(O)CC(=O)[O-].CC(C)(O)CC(=O)[O-].[Ca+2] [Calcium salt hydrate of HMB, calcium salt hydrate of HMB] |  |  |  | induces the increase in urinary calcium and the decrease in urinary phosphate excretion |
